According to ChEMBL document CHEMBL3046722, “QSAR study of 1,3dioxo-4-methyl-2,3-dihydro-1h-pyrrolo[3,4-c]quinolines as caspase-3 inhibitors” (Med Chem Res, 2008):

Assay: Octanol-water partition coefficient, log P of the compound
Format: physicochemical

| logP | Compound |
| --- | --- |
| 5.33 | Cc1ccccc1N1C(=O)c2c(C)nc3ccc(Br)cc3c2C1=O |
| 4.43 | Cc1nc2ccc(Br)cc2c2c1C(=O)N(c1c(C)nn(C)c1C)C2=O |
| 2.16 | Cc1nc2ccc(S(N)(=O)=O)cc2c2c1C(=O)N(c1c(C)nn(C)c1C)C2=O |
| 1.96 | Cc1nc2ccc(S(=O)(=O)NCCO)cc2c2c1C(=O)N(c1c(C)nn(C)c1C)C2=O |
| 2.24 | COCCNS(=O)(=O)c1ccc2nc(C)c3c(c2c1)C(=O)N(c1c(C)nn(C)c1C)C3=O |
| 4.2 | COC(=O)C(Cc1ccccc1)NS(=O)(=O)c1ccc2nc(C)c3c(c2c1)C(=O)N(c1c(C)nn(C)c1C)C3=O (centres undefined) |
| 4.67 | Cc1nc2ccc(S(=O)(=O)N3CCCC3COc3ccccc3)cc2c2c1C(=O)N(c1c(C)nn(C)c1C)C2=O (centres undefined) |
| 2.31 | Cc1nc2ccc(S(=O)(=O)N3CCOCC3)cc2c2c1C(=O)N(c1c(C)nn(C)c1C)C2=O |
| 3.68 | Cc1nc2ccc(C#N)cc2c2c1C(=O)N(c1c(C)nn(C)c1C)C2=O |
| 2.95 | Cc1nc2ccc(Br)cc2c2c1C(=O)N(C)C2=O |

The remaining lines, values behind:

| Compound | logP |
| --- | --- |
| COC(=O)CN1C(=O)c2c(C)nc3ccccc3c2C1=O | 1.73 |
| COC(=O)CN1C(=O)c2c(C)nc3ccc(F)cc3c2C1=O | 1.87 |
| COC(=O)CN1C(=O)c2c(C)nc3ccc(Br)cc3c2C1=O | 2.53 |
| COC(=O)CN1C(=O)c2c(C)nc3ccc(S(=O)(=O)N4CCOCC4)cc3c2C1=O | 0.404 |
| COC(=O)CCN1C(=O)c2c(C)nc3ccccc3c2C1=O | 1.92 |
| COC(=O)CCN1C(=O)c2c(C)nc3ccc(F)cc3c2C1=O | 2.06 |
| COC(=O)CCN1C(=O)c2c(C)nc3ccc(Br)cc3c2C1=O | 2.71 |
| COC(=O)CCN1C(=O)c2c(C)nc3ccc(S(=O)(=O)N4CCOCC4)cc3c2C1=O | 0.585 |
| Cc1ccccc1N1C(=O)c2c(C)nc3ccccc3c2C1=O | 4.54 |
| Cc1ccccc1N1C(=O)c2c(C)nc3ccc(S(=O)(=O)N4CCOCC4)cc3c2C1=O | 3.21 |
| Cc1nc2ccc(F)cc2c2c1C(=O)NC2=O | 2.05 |
| Cc1nc2ccc(Br)cc2c2c1C(=O)NC2=O | 2.71 |
| Cc1nc2ccc(S(=O)(=O)N3CCOCC3)cc2c2c1C(=O)NC2=O | 0.584 |
| Cc1nc2ccc(S(=O)(=O)N3CCOCC3)cc2c2c1C(=O)N(C)C2=O | 0.83 |
